Reference: patent US6369111B1, “Substituted oximes” (priority 1998, dated 2002)

Assay: logP determination by HPLC (EEC Directive 79/831 Annex V. A8)
Assay type: physicochemical
Procedure: The logP values were determined in accordance with EEC Directive 79/831 Annex V. A8 by HPLC (gradient method, acetonitrile/0.1% aqueous phosphoric acid (s) or gradient method, acetonitrile/0.1% water (n))

First: CO/N=C(SC)/C(C)=N/OCc1ccccc1/C(=C\C(=O)OC)OC [Example 1, methyl 3-methoxy-3-[2-(2-methoxyamino-1-methyl-2-methylthio-ethylideneaminooxymethyl)-phenyl]-acrylate]
Second: CO/N=C(OC)/C(C)=N/OCc1ccccc1/C(=C\C(=O)OC)OC [Example 3, methyl 3-methoxy-3-[2-(2-methoxy-2-methoxyimino-1-methyl-ethylideneaminooxymethyl)-phenyl]-acrylate]
The chromatographic logP of the first is higher: 3.5 for the first, 3.05 for the second.

Molecule `CO/N=C(/C(C)=N/OCc1ccccc1/C(=C\C(=O)OC)OC)S(C)(=O)=O` [Example 2, methyl 3-[2-(2-methanesulfonyl-2-methoxyimino-1-methyl-ethylideneaminooxymethyl)-phenyl]-3-methoxy-acrylate] has a chromatographic logP of 2.79.
